# In ChEMBL document CHEMBL1201862, “PubChem BioAssay data set” (2004):
#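 Five compound concentrations were applied to cells in 96-well plates for 48 hours; endpoints were derived by simple linear interpolation of the resulting dose-response curve. GI50 marks 50% less growth.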 The source made the active and inactive calls. No stated cut-off is given here; in the data, active = GI50 up to about 1.1 µM and inactive = higher.
# How the values were obtained:
# Experiment in all cases: growth of human tumour cells (NCI), 48 h
# OVCAR-3 = test system: OVCAR-3
# 786-0 = test system: 786-0
# NCI-H460 = test system: NCI-H460
# T47D = test system: T47D
# HCT-15 = test system: HCT-15
# UACC-257 = test system: UACC-257
# SW-620 = test system: SW-620
# HCC 2998 = test system: HCC 2998
# HOP-62 = test system: HOP-62
# NCI-H522 = test system: NCI-H522
# OVCAR-5 = test system: OVCAR-5
# NCI/ADR-RES = test system: NCI/ADR-RES
# SK-OV-3 = test system: SK-OV-3
# A549 = test system: A549
# U-251 = test system: U-251
# K562 = test system: K562
# SF-268 = test system: SF-268
# OVCAR-4 = test system: OVCAR-4
# SR = test system: SR
# LOX IMVI = test system: LOX IMVI
Compound,GI50 (OVCAR-3),GI50 (786-0),GI50 (NCI-H460),GI50 (T47D),GI50 (HCT-15) [µM],GI50 (UACC-257),GI50 (SW-620),GI50 (HCC 2998),GI50 (HOP-62),GI50 (NCI-H522),GI50 (OVCAR-5),GI50 (NCI/ADR-RES),GI50 (SK-OV-3),GI50 (A549),GI50 (U-251),GI50 (K562),GI50 (SF-268),GI50 (OVCAR-4),GI50 (SR),GI50 (LOX IMVI)
O=C(O)Cn1ccnc1[N+](=O)[O-],> 100 µM (inactive),> 100 µM (inactive),> 100 µM (inactive),> 100 µM (inactive),> 100,> 100 µM (inactive),> 100 µM (inactive),> 100 µM (inactive),> 100 µM (inactive),> 100 µM (inactive),> 100 µM (inactive),> 100 µM (inactive),> 100 µM (inactive),> 100 µM (inactive),> 100 µM (inactive),> 100 µM (inactive),> 100 µM (inactive),> 100 µM (inactive),> 100 µM (inactive),–
O=C(NCCCc1cn[nH]c(=O)n1)c1cccc2nc3ccccc3nc12,> 100 µM (inactive),40.7 µM (inactive),> 100 µM (inactive),> 100 µM (inactive),> 100,> 100 µM (inactive),> 100 µM (inactive),> 100 µM (inactive),47.8 µM (inactive),–,> 100 µM (inactive),> 100 µM (inactive),> 100 µM (inactive),> 100 µM (inactive),36.5 µM (inactive),> 100 µM (inactive),91.8 µM (inactive),> 100 µM (inactive),40.6 µM (inactive),> 100 µM (inactive)
Cc1ccc(O)c(C2=NNC(c3cccc(Cl)c3)C2)c1 (configuration not stated),51.5 µM (inactive),72.8 µM (inactive),19.6 µM (inactive),41.4 µM (inactive),8.09,35 µM (inactive),48 µM (inactive),–,79.8 µM (inactive),16 µM (inactive),> 100 µM (inactive),34.5 µM (inactive),35.9 µM (inactive),34.8 µM (inactive),33.9 µM (inactive),36.4 µM (inactive),32.9 µM (inactive),24.4 µM (inactive),28.9 µM (inactive),31.6 µM (inactive)
NC(Cc1ccc(O)c(O)c1)P(=O)(O)O (configuration not stated),> 100 µM (inactive),> 100 µM (inactive),> 100 µM (inactive),18 µM (inactive),> 100,> 100 µM (inactive),20.1 µM (inactive),> 100 µM (inactive),–,4.75 µM (inactive),> 100 µM (inactive),> 100 µM (inactive),–,> 100 µM (inactive),> 100 µM (inactive),19.6 µM (inactive),> 100 µM (inactive),> 100 µM (inactive),91.8 µM (inactive),–
CSc1nc(N)c(NC2OC(CO)C(O)C2O)c(=O)[nH]1 (configuration not stated),> 100 µM (inactive),> 100 µM (inactive),> 100 µM (inactive),> 100 µM (inactive),> 100,> 100 µM (inactive),> 100 µM (inactive),–,> 100 µM (inactive),> 100 µM (inactive),> 100 µM (inactive),> 100 µM (inactive),> 100 µM (inactive),> 100 µM (inactive),> 100 µM (inactive),> 100 µM (inactive),> 100 µM (inactive),> 100 µM (inactive),> 100 µM (inactive),> 100 µM (inactive)
CC(=O)Nc1c(C)cc2c(nc3n2CCC3OC(C)=O)c1[N+](=O)[O-] (configuration not stated),> 100 µM (inactive),> 100 µM (inactive),> 100 µM (inactive),> 100 µM (inactive),> 100,> 100 µM (inactive),> 100 µM (inactive),–,–,> 100 µM (inactive),> 100 µM (inactive),> 100 µM (inactive),> 100 µM (inactive),> 100 µM (inactive),> 100 µM (inactive),> 100 µM (inactive),> 100 µM (inactive),> 100 µM (inactive),> 100 µM (inactive),> 100 µM (inactive)
CC1(C)CC(=O)C2=C(C1)c1c(ccc3ccccc13)NC2c1cn(Cc2ccc(Cl)cc2)c2ccccc12 (configuration not stated),18.7 µM (inactive),> 100 µM (inactive),23.9 µM (inactive),7.19 µM (inactive),> 100,94.2 µM (inactive),> 100 µM (inactive),–,40.9 µM (inactive),66.8 µM (inactive),36.5 µM (inactive),52.6 µM (inactive),> 100 µM (inactive),> 100 µM (inactive),56.8 µM (inactive),50.9 µM (inactive),> 100 µM (inactive),> 100 µM (inactive),11.2 µM (inactive),38.7 µM (inactive)
CC[C@H](C)[C@@H]([C@@H](CC(=O)N1CCC[C@H]1[C@H](OC)[C@@H](C)C(=O)NCCc1ccccc1)OC)N(C)C(=O)C(NC(=O)[C@H](C(C)C)N(C)C)C(C)C (some centres not stated),4.09e-05 µM (active),0.00021 µM (active),0.000211 µM (active),> 10 µM (inactive),0.00201,0.00139 µM (active),0.000249 µM (active),0.000266 µM (active),0.000235 µM (active),5.83e-05 µM (active),–,0.00736 µM (active),–,0.000248 µM (active),0.000251 µM (active),6.68e-05 µM (active),0.000658 µM (active),0.00094 µM (active),2.57e-05 µM (active),0.000299 µM (active)
C[C@]12CC(c3ccccc3O1)C(C(N)=O)C(=O)N2 (some centres not stated),> 100 µM (inactive),> 100 µM (inactive),> 100 µM (inactive),> 100 µM (inactive),> 100,> 100 µM (inactive),> 100 µM (inactive),> 100 µM (inactive),> 100 µM (inactive),> 100 µM (inactive),> 100 µM (inactive),> 100 µM (inactive),> 100 µM (inactive),> 100 µM (inactive),> 100 µM (inactive),> 100 µM (inactive),> 100 µM (inactive),> 100 µM (inactive),–,> 100 µM (inactive)
O=S1(=O)NN=C(NCc2ccc(F)cc2)c2ccccc21,67.5 µM (inactive),> 50.9 µM (inactive),> 31.6 µM (inactive),> 100 µM (inactive),> 64.1,69.2 µM (inactive),> 79.3 µM (inactive),> 67.6 µM (inactive),39.6 µM (inactive),–,> 100 µM (inactive),65.2 µM (inactive),50.6 µM (inactive),> 90.2 µM (inactive),33 µM (inactive),21 µM (inactive),> 100 µM (inactive),> 48 µM (inactive),> 44.7 µM (inactive),36.3 µM (inactive)
COc1cccc(C2c3cc4c(cc3OC(N3CCCC3)C2C)OCO4)c1 (configuration not stated),7.48 µM (inactive),9.62 µM (inactive),–,5.16 µM (inactive),4.68,12.1 µM (inactive),4.55 µM (inactive),11.9 µM (inactive),4.63 µM (inactive),3.92 µM (inactive),24.9 µM (inactive),4.53 µM (inactive),–,9.2 µM (inactive),–,2.69 µM (inactive),14.7 µM (inactive),–,3.82 µM (inactive),5.71 µM (inactive)
O=C(O)c1ccc(C(c2c(O)oc3ccccc3c2=O)c2c(O)oc3ccccc3c2=O)cc1,> 100 µM (inactive),> 100 µM (inactive),> 100 µM (inactive),> 100 µM (inactive),> 100,> 100 µM (inactive),> 100 µM (inactive),29.3 µM (inactive),43 µM (inactive),–,86.3 µM (inactive),> 100 µM (inactive),> 100 µM (inactive),> 100 µM (inactive),> 100 µM (inactive),15.5 µM (inactive),4.97 µM (inactive),–,44.3 µM (inactive),> 100 µM (inactive)
CC(C)(/C=N\O)NO,> 10 µM (inactive),> 10 µM (inactive),> 10 µM (inactive),> 10 µM (inactive),> 10,> 10 µM (inactive),> 10 µM (inactive),> 10 µM (inactive),> 10 µM (inactive),> 10 µM (inactive),> 10 µM (inactive),> 10 µM (inactive),–,> 10 µM (inactive),> 10 µM (inactive),> 10 µM (inactive),> 10 µM (inactive),> 10 µM (inactive),> 10 µM (inactive),> 10 µM (inactive)
CC1(C)C(C(=O)OC(C#N)c2cccc(OCC(=O)OCc3ccccc3)c2)C1(C)C (configuration not stated),> 100 µM (inactive),> 100 µM (inactive),> 100 µM (inactive),45.8 µM (inactive),> 100,55.6 µM (inactive),70.3 µM (inactive),–,> 100 µM (inactive),> 100 µM (inactive),> 100 µM (inactive),81.5 µM (inactive),> 100 µM (inactive),> 100 µM (inactive),> 100 µM (inactive),2.36 µM (inactive),> 100 µM (inactive),> 100 µM (inactive),0.251 µM (active),95.7 µM (inactive)
Cc1cn(C2CC(N)C(CN)O2)c(=O)[nH]c1=O (configuration not stated),> 100 µM (inactive),> 100 µM (inactive),> 100 µM (inactive),37.8 µM (inactive),> 100,> 100 µM (inactive),> 100 µM (inactive),> 100 µM (inactive),> 100 µM (inactive),> 100 µM (inactive),> 100 µM (inactive),> 100 µM (inactive),> 100 µM (inactive),> 100 µM (inactive),> 100 µM (inactive),> 100 µM (inactive),> 100 µM (inactive),> 100 µM (inactive),> 100 µM (inactive),–
